Measurements: the supplement of paper PMC10627819

Experiments:
Experiment in all cases: Bliss interaction score (quartile over a dose matrix) (fitness difference); higher = more antagonism (negative = synergy)
S. aureus Newman = system: S. aureus Newman
Summary of the method: (§1)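 Fitness here means normalised growth, inferred for single drugs from the combination data. Growth was OD595 at entry into stationary phase, divided by the plate's robust no-drug mean and capped at 1. The Bliss score is observed minus expected fitness, with the expectation being the product, and its quartiles span technical, biological and donor/recipient replicates.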

B. subtilis 168 = system: B. subtilis 168
Summary of the method: as §1

S. pneumoniae D39V = system: S. pneumoniae D39V
Summary of the method: as §1

S. aureus DSM 20231 = system: S. aureus DSM 20231
Summary of the method: as §1
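Note: first quartile when negative (synergy) and third quartile when positive (antagonism).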

| Structure (SMILES) | Bliss interaction score (S. aureus Newman; main component drawn) | Bliss interaction score (B. subtilis 168; main component drawn) | Bliss interaction score (S. pneumoniae D39V; main component drawn) | Bliss interaction score (S. aureus DSM 20231; main component drawn) | Bliss interaction score (S. aureus Newman) | Bliss interaction score (B. subtilis 168) | Bliss interaction score (S. pneumoniae D39V) | Bliss interaction score (S. aureus DSM 20231) |
| --- | --- | --- | --- | --- | --- | --- | --- | --- |
| N[C@@H]1CONC1=O [CycloserineD] + CCC(C)C1C(=O)NC(=C)C(=O)NC(C(=O)NC(CSCC(C(=O)N1)NC(=O)/C(=C/C)/NC(=O)C(C(C)CC)N)C(=O)NC2C(SCC(NC(=O)CNC(=O)C3CCCN3C2=O)C(=O)NC(CCCCN)C(=O)NC4C(SCC(NC(=O)CNC(=O)C(NC(=O)C(NC(=O)C(NC(=O)CNC4=O)C)CC(C)C)CCSC)C(=O)NC(CC(=O)N)C(=O)NC(CCSC)C(=O)NC(CCCCN)C(=O)NC5C(SCC6C(=O)NC(C(=O)NC(CSC(C(C(=O)N6)NC(=O)C(NC5=O)C)C)C(=O)NC(CO)C(=O)NC(C(C)CC)C(=O)NC(CC7=CN=CN7)C(=O)NC(C(C)C)C(=O)NC(=C)C(=O)NC(CCCCN)C(=O)O)CC8=CN=CN8)C)C)C)CC(C)C [Nisin] | 0.0401 | 0.0525 | 0.0554 | 0.193 |  |  |  |  |
| N[C@@H]1CONC1=O [CycloserineD] + CCCCCCCCCC(=O)N[C@@H]1[C@H]([C@@H]([C@H](O[C@H]1OC2=C3C=C4C=C2OC5=C(C=C(C=C5)[C@H]([C@H]6C(=O)N[C@@H](C7=C(C(=CC(=C7)O)OC8[C@H]([C@H]([C@@H]([C@H](O8)CO)O)O)O)C9=C(C=CC(=C9)[C@H](C(=O)N6)NC(=O)[C@@H]4NC(=O)[C@@H]1C2=CC(=CC(=C2)OC2=C(C=CC(=C2)[C@H](C(=O)N[C@H](CC2=CC(=C(O3)C=C2)Cl)C(=O)N1)N)O)O)O)C(=O)O)O[C@H]1[C@@H]([C@H]([C@@H]([C@H](O1)CO)O)O)NC(=O)C)Cl)CO)O)O [Teicoplanin] | 0.054 | 0.0976 | -0.0849 | 0.0399 |  |  |  |  |
| N[C@@H]1CONC1=O [CycloserineD] + CCC[C@@H]1C[C@@H](C(=O)N[C@@H]([C@H]2O[C@H](SC)[C@H](O)[C@@H](O)[C@H]2O)[C@@H](C)O)N(C)C1 [Lincomycin] |  |  |  |  | 0.102 | -0.0375 | 0.153 | -0.146 |
| N[C@@H]1CONC1=O [CycloserineD] + CCN(CC)CCOC(=O)c1ccc(N)cc1 [Procaine] |  |  |  |  | 0.0381 | -0.0484 | -0.0723 | 0.0639 |
| N[C@@H]1CONC1=O [CycloserineD] + CC[C@H]1OC(=O)[C@H](C)C(=O)[C@H](C)[C@@H](O[C@@H]2O[C@H](C)C[C@H](N(C)C)[C@H]2O)[C@](C)(OC)C[C@@H](C)C(=O)[C@H](C)[C@H]2N(CCCCn3cnc(-c4cccnc4)c3)C(=O)O[C@]12C [Telithromycin] |  |  |  |  | 0.0514 | 0.0974 | 0.0906 | 0.116 |
| N[C@@H]1CONC1=O [CycloserineD] + CC[C@H]1OC(=O)[C@H](C)[C@@H](O[C@H]2C[C@@](C)(OC)[C@@H](O)[C@H](C)O2)[C@H](C)[C@@H](O[C@@H]2O[C@H](C)C[C@H](N(C)C)[C@H]2O)[C@](C)(O)C[C@@H](C)C(=O)[C@H](C)[C@@H](O)[C@]1(C)O [Erythromycin] |  |  |  |  | -0.0485 | 0.077 | 0.0918 | -0.043 |
| N[C@@H]1CONC1=O [CycloserineD] + CN1C2=CC=CC=C2N=C3C1=CC=CC3=O [Pyocyanin] |  |  |  |  | -0.0546 | -0.0572 | 0.201 | 0.0676 |
| N[C@@H]1CONC1=O [CycloserineD] + CN(C)C(=O)C(CCN1CCC(O)(c2ccc(Cl)cc2)CC1)(c1ccccc1)c1ccccc1 [Loperamide] |  |  |  |  | 0.0674 | -0.209 | 0.289 | 0.0915 |
| N[C@@H]1CONC1=O [CycloserineD] + CN(C)c1cc(NC(=O)CNC(C)(C)C)c(O)c2c1C[C@H]1C[C@H]3[C@H](N(C)C)C(O)=C(C(N)=O)C(=O)[C@@]3(O)C(O)=C1C2=O [Tigecycline] |  |  |  |  | 0.0356 | -0.0502 | -0.0514 | 0.0966 |
| N[C@@H]1CONC1=O [CycloserineD] + CN(N=O)C(=O)N[C@@H](C=O)[C@@H](O)[C@H](O)[C@H](O)CO [Streptozotocin] |  |  |  |  | -0.0611 | 0.0463 | -0.16 | -0.14 |
| N[C@@H]1CONC1=O [CycloserineD] + CN[C@@H]1[C@H](O)[C@H](NC)[C@H]2O[C@@]3(O)C(=O)C[C@@H](C)O[C@H]3O[C@@H]2[C@H]1O [Spectinomycin] |  |  |  |  | 0.0506 | -0.034 | 0.11 | 0.0625 |
| N[C@@H]1CONC1=O [CycloserineD] + CN[C@@H]1[C@H](O[C@H]2[C@H](O[C@H]3[C@H](O)[C@@H](O)[C@H](N=C(N)N)[C@@H](O)[C@@H]3N=C(N)N)O[C@@H](C)[C@]2(O)C=O)O[C@@H](CO)[C@H](O)[C@H]1O [Streptomycin] |  |  |  |  | 0.0653 | -0.0511 | -0.108 | -0.136 |
| N[C@@H]1CONC1=O [CycloserineD] + CN[C@H](CC(C)C)C(=O)N[C@H]1C(=O)N[C@@H](CC(N)=O)C(=O)N[C@H]2C(=O)N[C@H]3C(=O)N[C@H](C(=O)N[C@H](C(=O)O)c4cc(O)cc(O)c4-c4cc3ccc4O)[C@H](O)c3ccc(c(Cl)c3)Oc3cc2cc(c3O[C@@H]2O[C@H](CO)[C@@H](O)[C@H](O)[C@H]2O[C@H]2C[C@](C)(N)[C@H](O)[C@H](C)O2)Oc2ccc(cc2Cl)[C@H]1O [Vancomycin] |  |  |  |  | 0.0656 | -0.113 | -0.069 | 0.0736 |
| N[C@@H]1CONC1=O [CycloserineD] + CN[C@H](CC(C)C)C(=O)N[C@H]1C(=O)N[C@@H](CC(N)=O)C(=O)N[C@H]2C(=O)N[C@H]3C(=O)N[C@H](C(=O)N[C@H](C(=O)O)c4cc(O)cc(O)c4-c4cc3ccc4O)[C@H](O[C@H]3C[C@](C)(N)[C@@H](O)[C@H](C)O3)c3ccc(c(Cl)c3)Oc3cc2cc(c3O[C@@H]2O[C@H](CO)[C@@H](O)[C@H](O)[C@H]2O[C@H]2C[C@](C)(NCc3ccc(-c4ccc(Cl)cc4)cc3)[C@@H](O)[C@H](C)O2)Oc2ccc(cc2Cl)[C@H]1O [Oritavancin] |  |  |  |  | 0.0585 | 0.0352 | 0.0458 | -0.0757 |
| N[C@@H]1CONC1=O [CycloserineD] + CO[C@@H]1[C@@H](OC(N)=O)[C@@H](O)[C@H](Oc2ccc3c(O)c(NC(=O)c4ccc(O)c(CC=C(C)C)c4)c(=O)oc3c2C)OC1(C)C [Novobiocin] |  |  |  |  | 0.0912 | 0.0651 | 0.187 | 0.0888 |
| N[C@@H]1CONC1=O [CycloserineD] + CO[C@@]12[C@H](COC(N)=O)C3=C(C(=O)C(C)=C(N)C3=O)N1C[C@@H]1N[C@@H]12 [MitomycinC] |  |  |  |  | -0.0532 | 0.0912 | 0.108 | -0.0633 |
| N[C@@H]1CONC1=O [CycloserineD] + CO[C@H]1/C=C/O[C@@]2(C)Oc3c(C)c(O)c4c(O)c(c(/C=N/N5CCN(C)CC5)c(O)c4c3C2=O)NC(=O)/C(C)=C\C=C\[C@H](C)[C@H](O)[C@@H](C)[C@@H](O)[C@@H](C)[C@H](OC(C)=O)[C@@H]1C [Rifampicin] |  |  |  |  | 0.0463 | 0.0563 | 0.163 | -0.0935 |
| N[C@@H]1CONC1=O [CycloserineD] + COc1c(N2C[C@@H]3CCCN[C@@H]3C2)c(F)cc2c(=O)c(C(=O)O)cn(C3CC3)c12 [Moxifloxacin] |  |  |  |  | -0.0769 | -0.0252 | 0.0969 | -0.0873 |
| N[C@@H]1CONC1=O [CycloserineD] + COc1cc(Cc2cnc(N)nc2N)cc(OC)c1OC [Trimethoprim] |  |  |  |  | -0.067 | 0.0782 | 0.0932 | -0.0585 |
| N[C@@H]1CONC1=O [CycloserineD] + COc1ccc(C[C@H](N)C(=O)N[C@H]2[C@@H](O)[C@H](n3cnc4c(N(C)C)ncnc43)O[C@@H]2CO)cc1 [Puromycin] |  |  |  |  | 0.051 | 0.0439 | 0.142 | 0.0925 |
| N[C@@H]1CONC1=O [CycloserineD] + COc1cccc2c1C(=O)c1c(O)c3c(c(O)c1C2=O)C[C@@](O)(C(=O)CO)C[C@@H]3O[C@H]1C[C@H](N)[C@H](O)[C@H](C)O1 [Doxorubicin] |  |  |  |  | -0.0446 | 0.0778 | 0.0698 | 0.0418 |
| N[C@@H]1CONC1=O [CycloserineD] + C[C@@H]1O[C@@H]1P(=O)(O)O [Fosfomycin] |  |  |  |  | -0.033 | -0.046 | 0.0808 | -0.0611 |
| N[C@@H]1CONC1=O [CycloserineD] + C[C@@H](O)[C@H]1C(=O)N2C(C(=O)O)=C(SCCNC=N)C[C@H]12 [Imipenem] |  |  |  |  | -0.0358 | 0.0545 | -0.235 | 0.0715 |
| N[C@@H]1CONC1=O [CycloserineD] + C[C@H]1COc2c(N3CCN(C)CC3)c(F)cc3c(=O)c(C(=O)O)cn1c23 [Levofloxacin] |  |  |  |  | -0.131 | 0.0199 | 0.0882 | -0.12 |
| N[C@@H]1CONC1=O [CycloserineD] + C[C@H]1c2cccc(O)c2C(=O)C2=C(O)[C@]3(O)C(=O)C(C(N)=O)=C(O)[C@@H](N(C)C)[C@@H]3[C@@H](O)[C@@H]21 [Doxycycline] |  |  |  |  | -0.0254 | 0.0526 | 0.243 | -0.116 |
| N[C@@H]1CONC1=O [CycloserineD] + C[n+]1ccc(-c2cc[n+](C)cc2)cc1 [Paraquat] |  |  |  |  | 0.0488 | -0.036 | -0.101 | 0.0783 |
| N[C@@H]1CONC1=O [CycloserineD] + Cc1cc(NS(=O)(=O)c2ccc(N)cc2)no1 [Sulfamethoxazol] |  |  |  |  | 0.0449 | -0.0418 | -0.188 | 0.0715 |
